Test results taken from EP0683227A1, “Human retinoic acid receptor and genes encoding for it” (INSTITUT NATIONAL DE LA SANTE ET DE LA RECHERCHE MEDICALE …, priority 1989, dated 1991).

Key:
F9 teratocarcinoma cells = experiment: Northern blot of mRAR RNAs in F9 cells after RA treatment (densitometric scanning); type: cell-based, mouse
[1] = system: hRAR-γ (human retinoic acid receptor γ, hRAR-γD cDNA in pSG5 = hRAR-γ0); experiment: RA-dependent transcriptional activation of (TRE₃)₃-tk-CAT reporter by hRAR-γ0 in HeLa cells (CAT activity); type: cell-based; conditions: data not shown
Method: To test the ability of hRAR-γ to activate transcription, hRAR-γD cDNA was subcloned into the eukaryotic expression vector pSG5 [Green, S., Issemann, I. & Scheer, E. Nucleic Acids Res. 16, 369 (1988)] as described in Example 6, to give hRAR-γ0 which was co-transfected into HeLa cells along with a reporter plasmid, (TRE₃)₃-tk-CAT, which contains a synthetic RA responsive element as described in Example 6. The transfected cells were exposed (24 hour post transfection) to increasing concentrations of RA, and RA-induced activation of transcription was evaluated 48 hours after transfection by determining the CAT activity expressed from the reporter gene.
The entire 1.5 kb insert from the hRAR-γD clone was inserted into the EcoRI site of the eukaryotic expression vector pSG5 [Green, S., Issemann, I. & Scheer, E. Nucleic Acids Res. 16, 369 (1988)], to yield hRAR-γ0. 500 ng of hRAR-γ0 was transfected into HeLa cells along with 2 µg of the (TRE₃)₃-tk-CAT reporter plasmid, 2 µg of a β-galactosidase expressing plasmid pCH110 (to normalize for variations in transfection efficiency) and 15 µg of carrier DNA (BSM13+) as described [Petkovich, M., Brand, N. J., Krust, A. & Chambon, P. Nature 330, 444-450 (1987)]. 24 hours following transfection, the cells were exposed for an additional 24 hour to RA for retinol with concentrations ranging from 10⁻¹¹M to 10⁻⁶. […]

[2] = system: mRAR-β (mouse retinoic acid receptor β, expression vector mRAR-βO); experiment: RA-dependent transcriptional transactivation of (TRE₃)₃-tk-CAT reporter in co-transfected HeLa cells (CAT activity); type: cell-based; conditions: same concentrations as RA; data not shown
Excerpt: (§1) (mRAR-αO, mRAR-βO and mRAR-γO, respectively) and co-transfected into HeLa cells with a reporter plasmid, (TRE₃)₃-tk-CAT, containing a RA responsive element. […] In Fig. 3 HeLa cells were co-transfected as described in example 2 [Petkovich, M., Brand, N. J., Krust, A. & Chambon, P. Nature 330, 444-450 (1987); Brand, N., Petkovich, M., Krust, A., Chambon, P., de The, H., Marchio, A., Tiollais, P. & Dejean, A. Nature 332, 850-853 (1988)] with pSG5-based expression vectors [Green, S., Issemann, I. & Scheer, E. Nucleic Acids Res. 16, 369 (1988)] containing the entire cDNA of either mRAR-α (mRAR-αO), β (mRAR-βO) or γ (mRAR-γO), and a reporter plasmid, (TRE₃)₃-tk-CAT, carrying a synthetic RA responsive element (RARE). 24 hours after transfection, cells were fed with media containing increasing concentrations of RA as indicated (from 0 to 1x10⁻⁶ M, lanes 1-8, respectively) and harvested 48 hours post-transfection for determination of CAT activity. […] No obvious difference was observed between the dose responsiveness of mRAR-α and β, in contrast with previous results obtained with human chimeric constructs in which the C region of hRAR-α and β was replaced by the corresponding region of the human oestrogen receptor [Brand, N., Petkovich, M., Krust, A., Chambon, P., de The, H., Marchio, A., Tiollais, P. & Dejean, A. Nature 332, 850-853 (1988)]. The reason for these differences is unknown, but may be related to the use of a different and less sensitive responsive element in the present study. Direct determination of the true affinity of RAR-α, β and γ for RA must await direct binding measurements in vitro in the absence of the cellular retinoic acid binding protein.
(§2) HeLa cells (∼ 10⁶ per dish) were co-transfected with 0.5 µg of a given mRAR expression vector, 2 µg of reporter plasmid and 2 µg of pCH110 (Pharmacia, a β-galactosidase expression vector used as an internal control to normalize for variations in transfection efficiency). The total amount of transfected DNA was adjusted to 20µg by addition of carrier DNA (BSM13+). […]

[3] = system: mRAR-α (mouse retinoic acid receptor α, expression vector mRAR-αO); experiment: as above; type: cell-based; conditions: same concentrations as RA; data not shown
Excerpt: as §1, §2

[4] = system: mRAR-γ (mouse retinoic acid receptor γ, expression vector mRAR-γO); experiment: as above; type: cell-based; conditions: same concentrations as RA; data not shown
Excerpt: as §1, §2

CC1=C(/C=C/C(C)=C/C=C/C(C)=C/C(=O)O)C(C)(C)CCC1 [RA, retinoic acid]
fold induction at 0.33 µM (F9 teratocarcinoma cells; Mus musculus, F9, read-out: induction of mRAR-β RNA): ≥ 30
decrease of mRAR-γ RNA (F9 teratocarcinoma cells; RA 3.3x10⁻⁷M, 24 and 48 hours): 2 fold

CC1=C(/C=C/C(C)=C/C=C/C(C)=C/CO)C(C)(C)CCC1 [retinol]
potency as activator compared with all-trans or 13-cis retinoic acid [1]: much less potent activator
transactivation efficiency compared with RA [2]: much less efficient
transactivation efficiency compared with RA [3]: much less efficient
transactivation efficiency compared with RA [4]: much less efficient
